System: F21T (DNA, G4) GGGTTAGGGTTAGGGTTAGGG
Experiment: FRET melting
Conditions: 0.1 M KCl, 10 mM sodium cacodylate pH 7.2, 0.25 µM DNA

SMILES	ΔTm (120 µM compound, authors: almost no interaction)	ΔTm (50 µM compound)
COc1ccc(Cc2nccc3cc(OC)c(OC)cc23)cc1OC	~ 5 °C	
COc1ccc2cc3[n+](cc2c1OC)CCc1cc2c(cc1-3)OCO2		~ 15.5 °C

Source: article PMC6271551 (2014)
